Source: ChEMBL document CHEMBL3046957, “Synthesis of new oxadiazole derivatives as anti-inflammatory, analgesic, and antimicrobial agents” (2013)

What was measured:
Format in all cases: functional
Rattus norvegicus [1] = test: Anti-inflammatory activity in Wistar albino Rattus norvegicus (rat) assessed as inhibition of carrageenan-induced paw edema at 10 mg/kg, po administered 30 min prior to carrageenan challenge measured after 2 hr by plethysmometric analysis relative to untreated control
Rattus norvegicus [2] = test: Anti-inflammatory activity in Wistar albino Rattus norvegicus (rat) assessed as inhibition of carrageenan-induced paw edema at 10 mg/kg, po administered 30 min prior to carrageenan challenge measured after 1 hr by plethysmometric analysis relative to untreated control
Rattus norvegicus [3] = test: Anti-inflammatory activity in Wistar albino Rattus norvegicus (rat) assessed as inhibition of carrageenan-induced paw edema at 10 mg/kg, po administered 30 min prior to carrageenan challenge measured after 1.5 hr by plethysmometric analysis relative to untreated control
Rattus norvegicus [4] = test: Anti-inflammatory activity in Wistar albino Rattus norvegicus (rat) assessed as inhibition of carrageenan-induced paw edema at 10 mg/kg, po administered 30 min prior to carrageenan challenge measured after 3 hr by plethysmometric analysis relative to untreated control
Rattus norvegicus [5] = test: Anti-inflammatory activity in Wistar albino Rattus norvegicus (rat) assessed as inhibition of carrageenan-induced paw edema at 10 mg/kg, po administered 30 min prior to carrageenan challenge measured after 0.5 hr by plethysmometric analysis relative to untreated control
Aspergillus niger [6] = test: Antifungal activity against Aspergillus niger assessed as growth inhibition at 100 ug/mL after 24 hr by cup-plate method; details: read-out: DIZ
Pseudomonas aeruginosa [7] = test: Antibacterial activity against Pseudomonas aeruginosa assessed as growth inhibition at 50 ug/mL after 24 to 48 hr by cup-plate method; details: read-out: DIZ
Pseudomonas aeruginosa [8] = test: Antibacterial activity against Pseudomonas aeruginosa assessed as growth inhibition at 100 ug/mL after 24 to 48 hr by cup-plate method; details: read-out: DIZ
Escherichia coli [9] = test: Antibacterial activity against Escherichia coli assessed as growth inhibition at 50 ug/mL after 24 to 48 hr by cup-plate method; details: read-out: DIZ
Mus musculus [10] = test: Analgesic activity in Swiss albino Mus musculus (mouse) assessed as latency time of heat-induced paw licking/jumping behaviour at 10 mg/kg after 1 hr by Eddy's hot plate method (reference value: 4.74 +/- 0.21 secs)
Escherichia coli [11] = test: Antibacterial activity against Escherichia coli assessed as growth inhibition at 100 ug/mL after 24 to 48 hr by cup-plate method; details: read-out: DIZ
Staphylococcus aureus [12] = test: Antibacterial activity against Staphylococcus aureus assessed as growth inhibition at 100 ug/mL after 24 to 48 hr by cup-plate method; details: read-out: DIZ
Staphylococcus aureus [13] = test: Antibacterial activity against Staphylococcus aureus assessed as growth inhibition at 50 ug/mL after 24 to 48 hr by cup-plate method; details: read-out: DIZ
Mus musculus [14] = test: Analgesic activity in Swiss albino Mus musculus (mouse) assessed as latency time of heat-induced paw licking/jumping behaviour at 10 mg/kg after 2 hr by Eddy's hot plate method (reference value: 4.86 +/- 0.18 secs)
Mus musculus [15] = test: Analgesic activity in Swiss albino Mus musculus (mouse) assessed as latency time of heat-induced paw licking/jumping behaviour at 10 mg/kg after 4 hr by Eddy's hot plate method (reference value: 4.57 +/- 0.11 secs)
Bacillus subtilis [16] = test: Antibacterial activity against Bacillus subtilis assessed as growth inhibition at 100 ug/mL after 24 to 48 hr by cup-plate method; details: read-out: DIZ
Bacillus subtilis [17] = test: Antibacterial activity against Bacillus subtilis assessed as growth inhibition at 50 ug/mL after 24 to 48 hr by cup-plate method; details: read-out: DIZ
Aspergillus niger [18] = test: Antifungal activity against Aspergillus niger assessed as growth inhibition at 50 ug/mL after 24 hr by cup-plate method; details: read-out: DIZ
Candida albicans [19] = test: Antifungal activity against Candida albicans assessed as growth inhibition at 50 ug/mL after 24 hr by cup-plate method; details: read-out: DIZ
Candida albicans [20] = test: Antifungal activity against Candida albicans assessed as growth inhibition at 100 ug/mL after 24 hr by cup-plate method; details: read-out: DIZ
Mus musculus [21] = test: Analgesic activity in Swiss albino Mus musculus (mouse) assessed as latency time of heat-induced paw licking/jumping behaviour at 10 mg/kg after 0.5 hr by Eddy's hot plate method (reference value: 4.17 +/- 0.04 secs)

Compound	inhibition in vivo at 10 mg/kg (Rattus norvegicus [1]) [%]	inhibition in vivo at 10 mg/kg (Rattus norvegicus [2]) [%]	inhibition in vivo at 10 mg/kg (Rattus norvegicus [3]) [%]	inhibition in vivo at 10 mg/kg (Rattus norvegicus [4]) [%]	inhibition in vivo at 10 mg/kg (Rattus norvegicus [5]) [%]	zone of inhibition at 100 µg/mL (Aspergillus niger [6]) [mm]	zone of inhibition at 50 µg/mL (Pseudomonas aeruginosa [7]) [mm]	zone of inhibition at 100 µg/mL (Pseudomonas aeruginosa [8]) [mm]	zone of inhibition at 50 µg/mL (Escherichia coli [9]) [mm]	Time (Mus musculus [10]) [s]	zone of inhibition at 100 µg/mL (Escherichia coli [11]) [mm]	zone of inhibition at 100 µg/mL (Staphylococcus aureus [12]) [mm]	zone of inhibition at 50 µg/mL (Staphylococcus aureus [13]) [mm]	Time (Mus musculus [14]) [s]	Time (Mus musculus [15]) [s]	zone of inhibition at 100 µg/mL (Bacillus subtilis [16]) [mm]	zone of inhibition at 50 µg/mL (Aspergillus niger [18]) [mm]	zone of inhibition at 50 µg/mL (Candida albicans [19]) [mm]	zone of inhibition at 100 µg/mL (Candida albicans [20]) [mm]	Time (Mus musculus [21]) [s]	other results
O=C(O)Cc1ccccc1Nc1c(Cl)cccc1Cl [DICLOFENAC SODIUM]	77	49	65	90	35	–	–	–	–	–	–	–	–	–	–	–	–	–	–	–	–
COc1ccc(F)cc1-c1cccc(-c2nn(CCCCF)c(=O)o2)c1	83	51	67	95	36	10	18	21	17	5.24	20	25	19	7.88	7.04	24	9	8	11	5.55	zone of inhibition at 50 µg/mL (Bacillus subtilis [17]): 20 mm
COc1ccc(F)cc1-c1cccc(-c2nn(CCCN3C(=O)c4ccccc4C3=O)c(=O)o2)c1	61	30	49	64	19	10	13	19	15	4.11	18	16	10	4.01	4.01	18	7	6	10	4.75	zone of inhibition at 50 µg/mL (Bacillus subtilis [17]): 13 mm
COC(=O)CCCn1nc(-c2cccc(-c3cc(F)ccc3OC)c2)oc1=O	74	45	61	87	31	16	11	14	10	5.84	18	18	11	7.81	7.28	13	11	11	17	5.51	zone of inhibition at 50 µg/mL (Bacillus subtilis [17]): 10 mm
COc1ccc(F)cc1-c1cccc(-c2nn(CCOS(=O)(=O)c3ccc(Cl)c(Cl)c3)c(=O)o2)c1	64	39	51	66	25	10	12	15	12	4.48	19	15	12	5.72	5.55	17	7	3	9	4.95	zone of inhibition at 50 µg/mL (Bacillus subtilis [17]): 10 mm
CN[C@@H]1[C@H](O[C@H]2[C@H](O[C@H]3[C@H](O)[C@@H](O)[C@H](N=C(N)N)[C@@H](O)[C@@H]3N=C(N)N)O[C@@H](C)[C@]2(O)C=O)O[C@@H](CO)[C@H](O)[C@H]1O [STREPTOMYCIN]	–	–	–	–	–	–	21	25	21	–	25	–	–	–	–	–	–	–	–	–	–
COc1ccc(F)cc1-c1cccc(-c2nn(CCOC3CCCCO3)c(=O)o2)c1 (centres undefined)	56	32	44	65	16	11	18	21	9	4.21	16	14	9	4.58	4.21	15	8	9	9	4.81	zone of inhibition at 50 µg/mL (Bacillus subtilis [17]): 11 mm
COC1=CC(=O)C[C@@H](C)[C@]12Oc1c(Cl)c(OC)cc(OC)c1C2=O [GRISEOFULVIN]	–	–	–	–	–	37	–	–	–	–	–	–	–	–	–	–	22	20	35	–	–
COc1ccc(F)cc1-c1cccc(-c2nn(CCCC#N)c(=O)o2)c1	71	44	59	85	29	14	11	14	11	5.64	16	14	10	7.11	7.08	14	12	10	16	5.71	zone of inhibition at 50 µg/mL (Bacillus subtilis [17]): 13 mm
COc1ccc(F)cc1-c1cccc(-c2nn(CCOS(=O)(=O)c3ccc(F)c(Cl)c3)c(=O)o2)c1	62	42	55	65	23	11	17	18	13	4.69	19	20	13	5.87	5.47	22	9	8	7	4.62	zone of inhibition at 50 µg/mL (Bacillus subtilis [17]): 20 mm
CC(C)=CCN1CCC2(C)c3cc(O)ccc3CC1C2C (centres undefined) [PENTAZOCINE]	–	–	–	–	–	–	–	–	–	5.93	–	–	–	8.06	7.85	–	–	–	–	5.58	–
